Values after ≈ are worked out from the molar mass of the structure shown.
What was measured:
in vitro = details: human
Mtb H37Rv = test: MIC determination in Mtb H37Rv, Microdilution Alamar Blue Assay (MABA); type: cell-based, Mycobacterium tuberculosis; details: for MIC: Mtb H37Rv, MABA, 7 days
[1] = HEK293T cytotoxicity assay (Cell Titer-Glo); type: cell-based; details: human, HEK293T cells; HEK293T, 3 days
Procedure: HEK293T (ATCC) were grown in DMEM (Gibco Cat # 11965-092) supplemented with 10% heat-inactivated FBS, Pen Strep (Gibco) 1X in a 5% CO2 humidified atmosphere at 37◦C. Cells were washed once with DPBS 1X (Gibco), incubated for less than 5 minutes at room temperature in TrypLE solution (Gibco), washed once in propagation medium to remove trypsin, and counted with Trypan Blue. 5 µL of cell suspension ([…]) was dispensed into 1536-well plates containing serial 3-fold drug dilution ranging from 40 µM to 2 nM and incubated for 3 days in a 5% CO2 humidified atmosphere at 37 ◦C. Cell Titer-Glo® Luminescent Cell Viability Assay (Promega) reagent was diluted 1:1 with water and then 2 µL were added to plates. Luminescence was measured in a PHERAStar plate reader (BMG Labtech) and data normalized to negative control (DMSO) minus inhibitor (Puromycin 10 µM). Dose-response curves were fit using the Smart Fit function in Genedata Screener Analyzer (v16.0.8).

[2] = Mycobacterium tuberculosis, H37RV, 168 h

## O=S(=O)(F)Oc1ccc(OCc2cc(F)c(-n3cncn3)c(F)c2)cc1 [Compound 3 g, 4-((3,5-difluoro-4-(1H-1,2,4-triazol-1-yl)benzyl)oxy)phenyl sulfurofluoridate]
In vitro
  CC50: > 40 µM
Mtb H37Rv; [2]
  MIC: 10 µM (≈ 3.85 µg/mL)
[1]
  CC50 at 72 h: 34.8 µM

## O=S(=O)(F)Oc1ccc(OCc2cc(F)c(-n3cncn3)cc2F)cc1 [Compound 3 h, 4-((2,5-difluoro-4-(1H-1,2,4-triazol-1-yl)benzyl)oxy)phenyl sulfurofluoridate]
In vitro
  CC50 at 72 h: 29.5 µM
Mtb H37Rv; [2]
  MIC: 1.25 µM (≈ 0.482 µg/mL)
[1]
  CC50 at 72 h: 21.6 µM

## O=S(=O)(F)Oc1ccc(OCc2c(F)cc(-n3nccn3)cc2F)cc1 [Compound 3 k, 4-((2,6-difluoro-4-(2H-1,2,3-triazol-2-yl)benzyl)oxy)phenyl sulfurofluoridate]
In vitro
  CC50: > 40 µM
Mtb H37Rv; [2]
  MIC: 1.23 µM (≈ 0.474 µg/mL)
[1]
  CC50 at 3 days: > 40 µM

## O=S(=O)(F)Oc1ccc(OCc2c(F)cc(-n3ccnn3)cc2F)cc1 [Compound 3 l, 4-((2,6-difluoro-4-(1H-1,2,3-triazol-1-yl)benzyl)oxy)phenyl sulfurofluoridate]
In vitro
  CC50 at 72 h: 17 µM
Mtb H37Rv; [2]
  MIC: 0.16 µM (≈ 0.0617 µg/mL)
[1]
  CC50 at 72 h: 27.7 µM

## O=S(=O)(F)Oc1ccc(OCc2ccc(-n3cncn3)c(F)c2)cc1 [Compound 3e, 4-((3-fluoro-4-(1H-1,2,4-triazol-1-yl)benzyl)oxy)phenyl sulfurofluoridate]
In vitro
  CC50 at 72 h: 17.6 µM
Mtb H37Rv; [2]
  MIC: 2.5 µM (≈ 0.918 µg/mL)
[1]
  CC50 at 72 h: 16.8 µM

## O=S(=O)(F)Oc1ccc(OCc2ccc(-n3cncn3)c(F)c2F)cc1 [Compound 3f, 4-((2,3-difluoro-4-(1H-1,2,4-triazol-1-yl)benzyl)oxy)phenyl sulfurofluoridate]
In vitro
  CC50 at 72 h: 22.4 µM
Mtb H37Rv; [2]
  MIC: 1.25 µM (≈ 0.482 µg/mL)
[1]
  CC50 at 72 h: 18.8 µM

## N#Cc1cc(-n2cncn2)cc(F)c1COc1ccc(OS(=O)(=O)F)cc1 [Compound 3j, 4-((2-cyano-6-fluoro-4-(1H-1,2,4-triazol-1-yl)benzyl)oxy)phenyl sulfurofluoridate]
In vitro
  CC50: > 40 µM
Mtb H37Rv
  MIC: 5 µM (≈ 1.96 µg/mL)
Mtb H37Rv; [2]
  MIC: 5 µM (≈ 1.96 µg/mL)
[1]
  CC50 at 3 days: > 40 µM

## O=S(=O)(F)Oc1ccc(OCc2c(F)cc(-n3cnnn3)cc2F)cc1 [Compound 19 g, 4-((2,6-difluoro-4-(1H-tetrazol-1-yl)benzyl)oxy)phenyl sulfurofluoridate]
In vitro
  CC50 at 72 h: 12.1 µM
Mtb H37Rv; [2]
  MIC: 0.45 µM (≈ 0.174 µg/mL)
[1]
  CC50 at 72 h: 13.2 µM

## O=S(=O)(F)Oc1ccc(OCc2c(F)cc(-c3nnn[nH]3)cc2F)cc1 [Compound 19 h, 4-((2,6-difluoro-4-(1H-tetrazol-5-yl)benzyl)oxy)phenyl sulfurofluoridate]
In vitro
  CC50: > 40 µM
Mtb H37Rv; [2]
  MIC: 5 µM (≈ 1.93 µg/mL)
[1]
  CC50 at 3 days: > 40 µM

## O=S(=O)(F)Oc1ccc(OCc2c(F)cc(-c3nnc[nH]3)cc2F)cc1 [Compound 19a, 4-((2,6-difluoro-4-(1H-1,2,4-triazol-3-yl)benzyl)oxy)phenylsulfurofluoridate]
In vitro
  CC50 at 72 h: 19.3 µM
Mtb H37Rv
  MIC: 0.9 µM (≈ 0.347 µg/mL)
Mtb H37Rv; [2]
  MIC: < 1 µM
[1]
  CC50 at 72 h: 14.7 µM

## Cn1cnc(-c2cc(F)c(COc3ccc(OS(=O)(=O)F)cc3)c(F)c2)n1 [Compound 19b, 4-((2,6-difluoro-4-(1-methyl-1H-1,2,4-triazol-3-yl)benzyl)oxy)phenyl sulfurofluoridate]
In vitro
  CC50: > 40 µM
Mtb H37Rv; [2]
  MIC: 1.25 µM (≈ 0.499 µg/mL)

## O=S(=O)(F)Oc1ccc(OCc2c(F)cc(-c3ccn[nH]3)cc2F)cc1 [Compound 19c, 4-((2,6-difluoro-4-(1H-pyrazol-5-yl)benzyl)oxy)phenyl sulfurofluoridate]
In vitro
  CC50 at 72 h: 18.5 µM
Mtb H37Rv; [2]
  MIC: 0.84 µM (≈ 0.323 µg/mL)
[1]
  CC50 at 72 h: 31.7 µM

## O=S(=O)(F)Oc1ccc(OCc2c(F)cc(-c3ncc[nH]3)cc2F)cc1 [Compound 19d, 4-((2,6-difluoro-4-(1H-imidazol-2-yl)benzyl)oxy)phenyl sulfurofluoridate]
In vitro
  CC50 at 72 h: 30.1 µM
Mtb H37Rv; [2]
  MIC: 0.3 µM (≈ 0.115 µg/mL)
[1]
  CC50 at 3 days: > 40 µM

## Cn1ccnc1-c1cc(F)c(COc2ccc(OS(=O)(=O)F)cc2)c(F)c1 [Compound 19e, 4-((2,6-difluoro-4-(1-methyl-1H-imidazol-2-yl)benzyl)oxy)phenyl sulfurofluoridate]
In vitro
  CC50 at 72 h: 13.7 µM
Mtb H37Rv; [2]
  MIC: 1.25 µM (≈ 0.498 µg/mL)
[1]
  CC50 at 72 h: 26 µM

## O=S(=O)(F)Oc1ccc(OCc2c(F)cc(-n3ccnc3)cc2F)cc1 [Compound 19f, 4-((2,6-difluoro-4-(1H-imidazol-1-yl)benzyl)oxy)phenyl sulfurofluoridate]
In vitro
  CC50: < 10 µM
  CC50 at 72 h: 8.63 µM
Mtb H37Rv; [2]
  MIC: 0.37 µM (≈ 0.142 µg/mL)
[1]
  CC50 at 72 h: 9.65 µM
  CC50 at 3 days: < 10 µM

## O=S(=O)(F)Oc1ccc(OCc2c(F)cc(-c3ncon3)cc2F)cc1 [Compound 19i, 4-((2,6-difluoro-4-(1,2,4-oxadiazol-3-yl)benzyl)oxy)phenyl sulfurofluoridate]
In vitro
  CC50: > 40 µM
Mtb H37Rv
  MIC: 0.62 µM (≈ 0.24 µg/mL)
Mtb H37Rv; [2]
  MIC: < 1 µM
[1]
  CC50 at 3 days: > 40 µM

## O=S(=O)(F)Oc1ccc(OCc2c(F)cc(-c3cnoc3)cc2F)cc1 [Compound 19j, 4-((2,6-difluoro-4-(isoxazol-4-yl)benzyl)oxy)phenyl sulfurofluoridate]
In vitro
  CC50 at 72 h: 6.99 µM
Mtb H37Rv
  MIC: 0.78 µM (≈ 0.301 µg/mL)
Mtb H37Rv; [2]
  MIC: < 1 µM
[1]
  CC50 at 72 h: 23.8 µM

## N#Cc1ncn(-c2cc(F)c(COc3ccc(OS(=O)(=O)F)cc3)c(F)c2)n1 [Compound 20 g, 4-((4-(3-cyano-1H-1,2,4-triazol-1-yl)-2,6-difluorobenzyl)oxy)phenyl sulfurofluoridate]
In vitro
  CC50 at 72 h: 10.3 µM
Mtb H37Rv; [2]
  MIC: 0.45 µM (≈ 0.185 µg/mL)

## NC(=O)c1ncn(-c2cc(F)c(COc3ccc(OS(=O)(=O)F)cc3)c(F)c2)n1 [Compound 20 k, 4-((4-(3-carbamoyl-1H-1,2,4-triazol-1-yl)-2,6-difluorobenzyl)oxy)phenyl sulfurofluoridate]
In vitro
  CC50: > 40 µM
Mtb H37Rv; [2]
  MIC: 0.17 µM (≈ 0.0728 µg/mL)
[1]
  CC50 at 3 days: > 40 µM

## NS(=O)(=O)c1ncn(-c2cc(F)c(COc3ccc(OS(=O)(=O)F)cc3)c(F)c2)n1 [Compound 20 l, 4-((2,6-difluoro-4-(3-sulfamoyl-1H-1,2,4-triazol-1-yl)benzyl)oxy)phenyl sulfurofluoridate]
In vitro
  CC50: > 40 µM
Mtb H37Rv; [2]
  MIC: 0.47 µM (≈ 0.218 µg/mL)

## Cc1ncn(-c2cc(F)c(COc3ccc(OS(=O)(=O)F)cc3)c(F)c2)n1 [Compound 20a, 4-((2,6-difluoro-4-(3-methyl-1H-1,2,4-triazol-1-yl)benzyl)oxy)phenyl sulfurofluoridate]
In vitro
  CC50 at 72 h: 16.3 µM
Mtb H37Rv; [2]
  MIC: 0.3 µM (≈ 0.12 µg/mL)
[1]
  CC50 at 72 h: 17.1 µM

## CCc1ncn(-c2cc(F)c(COc3ccc(OS(=O)(=O)F)cc3)c(F)c2)n1 [Compound 20b, 4-((4-(3-ethyl-1H-1,2,4-triazol-1-yl)-2,6-difluorobenzyl)oxy)phenyl sulfurofluoridate]
In vitro
  CC50 at 72 h: 5.8 µM
Mtb H37Rv; [2]
  MIC: 0.6 µM (≈ 0.248 µg/mL)
[1]
  CC50 at 3 days: > 40 µM

## CC(C)c1ncn(-c2cc(F)c(COc3ccc(OS(=O)(=O)F)cc3)c(F)c2)n1 [Compound 20c, 4-((2,6-difluoro-4-(3-isopropyl-1H-1,2,4-triazol-1-yl)benzyl)oxy)phenyl sulfurofluoridate]
In vitro
  CC50 at 72 h: 12.4 µM
Mtb H37Rv; [2]
  MIC: 0.6 µM (≈ 0.256 µg/mL)
[1]
  CC50 at 72 h: 16.7 µM

## CC(C)(C)c1ncn(-c2cc(F)c(COc3ccc(OS(=O)(=O)F)cc3)c(F)c2)n1 [Compound 20d, 4-((4-(3-(tert-butyl)-1H-1,2,4-triazol-1-yl)-2,6-difluorobenzyl)oxy)phenyl sulfurofluoridate]
In vitro
  CC50 at 72 h: 6.9 µM
Mtb H37Rv; [2]
  MIC: 1.2 µM (≈ 0.53 µg/mL)
[1]
  CC50 at 72 h: 13.7 µM

## Cc1nc(C)n(-c2cc(F)c(COc3ccc(OS(=O)(=O)F)cc3)c(F)c2)n1 [Compound 20e, 4-((4-(3,5-dimethyl-1H-1,2,4-triazol-1-yl)-2,6-difluorobenzyl)oxy)phenyl sulfurofluoridate]
In vitro
  CC50 at 72 h: 8.1 µM
Mtb H37Rv; [2]
  MIC: 0.23 µM (≈ 0.0951 µg/mL)
[1]
  CC50 at 72 h: 14.3 µM

## COc1ncn(-c2cc(F)c(COc3ccc(OS(=O)(=O)F)cc3)c(F)c2)n1 [Compound 20f, 4-((2,6-difluoro-4-(3-methoxy-1H-1,2,4-triazol-1-yl)benzyl)oxy)phenyl sulfurofluoridate]
In vitro
  CC50: > 40 µM
Mtb H37Rv; [2]
  MIC: 0.6 µM (≈ 0.249 µg/mL)
[1]
  CC50 at 3 days: > 40 µM

## CS(=O)(=O)c1ncn(-c2cc(F)c(COc3ccc(OS(=O)(=O)F)cc3)c(F)c2)n1 [Compound 20i, 4-((2,6-difluoro-4-(3-(methylsulfonyl)-1H-1,2,4-triazol-1-yl)benzyl)oxy)phenyl sulfurofluoridate]
In vitro
  CC50 at 72 h: 9.3 µM
Mtb H37Rv; [2]
  MIC: 0.4 µM (≈ 0.185 µg/mL)
[1]
  CC50 at 72 h: 17.2 µM

## O=C(O)c1ncn(-c2cc(F)c(COc3ccc(OS(=O)(=O)F)cc3)c(F)c2)n1 [Compound 20j, 1-(3,5-difluoro-4-((4-((fluorosulfonyl)oxy)phenoxy)methyl)phenyl)-1H-1,2,4-triazole-3-carboxylic acid]
In vitro
  CC50: > 40 µM
Mtb H37Rv; [2]
  MIC: 1.25 µM (≈ 0.537 µg/mL)
[1]
  CC50 at 3 days: > 40 µM

## CS(=O)(=O)Nc1ncn(-c2cc(F)c(COc3ccc(O)cc3)c(F)c2)n1 [Compound 21 g]
Mtb H37Rv
  anti-TB activity against Mtb (in words): no activity
  MIC: > 10 µM

## CN(c1ncn(-c2cc(F)c(COc3ccc(OS(=O)(=O)F)cc3)c(F)c2)n1)S(C)(=O)=O [Compound 21c, 4-((2,6-difluoro-4-(3-(N-methylmethylsulfonamido)-1H-1,2,4-triazol-1-yl)benzyl)oxy)phenyl sulfurofluoridate]
In vitro
  CC50 at 72 h: 15.3 µM
Mtb H37Rv; [2]
  MIC: 0.31 µM (≈ 0.153 µg/mL)

## CCS(=O)(=O)Nc1ncn(-c2cc(F)c(COc3ccc(OS(=O)(=O)F)cc3)c(F)c2)n1 [Compound 21d, 4-((4-(3-(ethylsulfonamido)-1H-1,2,4-triazol-1-yl)-2,6-difluorobenzyl)oxy)phenyl sulfurofluoridate]
In vitro
  CC50: > 40 µM
Mtb H37Rv; [2]
  MIC: 0.08 µM (≈ 0.0394 µg/mL)

— PMC10808981, “Synthesis and structure–activity relationships of aryl fluorosulfate-based inhibitors as novel antitubercular agents” (Bioorganic & Medicinal Chemistry Letters, 2024)
